Molecular target: T1, human APJ receptor (Homo sapiens, UniProt P35414)
T1 construct: expressed in transfected cells; host or cells: HEK293
T1 sequence (P35414 1-380): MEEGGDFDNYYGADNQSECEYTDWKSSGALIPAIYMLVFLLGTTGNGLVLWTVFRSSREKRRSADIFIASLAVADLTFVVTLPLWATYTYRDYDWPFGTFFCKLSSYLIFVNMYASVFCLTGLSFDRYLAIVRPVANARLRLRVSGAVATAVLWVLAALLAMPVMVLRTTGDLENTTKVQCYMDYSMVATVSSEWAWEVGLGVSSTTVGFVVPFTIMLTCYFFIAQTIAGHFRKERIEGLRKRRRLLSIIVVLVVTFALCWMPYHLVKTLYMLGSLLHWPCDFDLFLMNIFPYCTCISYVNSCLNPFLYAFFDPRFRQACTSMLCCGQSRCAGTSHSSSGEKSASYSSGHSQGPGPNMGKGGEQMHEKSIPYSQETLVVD
Experiment: Intracellular cAMP Accumulation Assay (APJ hcAMP, HTRF)
Assay type: cell-based
Conditions: not given
Method in brief: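 Stably transfected HEK293 cells (5,000/well) incubated 30 min at room temperature with serially diluted compound, […] and 2 μM forskolin. cAMP measured by HTRF after 60 min with detection reagents, quantified against a cAMP standard curve; EC50 from variable-slope sigmoidal fit of inhibition of forskolin-stimulated cAMP.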

EC50 [nM] | SMILES
0.01 to 10 | CCOCc1nc(=O)c(C(=O)N2CC[C@H](c3ccccc3)C2)c(O)n1-c1c(OC)cccc1OC [Example 23, (R)-1-(2,6-dimethoxyphenyl)-2-(ethoxymethyl)-6-hydroxy-5-(3-phenylpyrrolidine-1-carbonyl)pyrimidin-4(1H)-one]

Same assay, conditions: human APJ, cAMP accumulation; potency range class; read-out: hAPJ cAMP EC50 Potency range

EC50 [nM] | SMILES
0.01 to 10 | CCc1cccc(CC)c1-n1c(-c2csc(C(C)C)n2)nc(=O)c(C(=O)N2CC[C@@H](c3ccccc3)C2)c1O [Example 299, 1-(2,6-diethylphenyl)-6-hydroxy-5-[(3S)-3-phenylpyrrolidine-1-carbonyl]-2-[2-(propan-2-yl)-1,3-thiazol-4-yl]-1,4-dihydropyrimidin-4-one]
0.01 to 10 | CCCCc1nc(O)c(C(=O)N2CCC(c3ncc(Cl)cc3F)C2)c(=O)n1[C@@H](COC)c1ccccc1 (single isomer, unassigned) [Example 352]
0.01 to 10 | CCc1cccc(CC)c1-n1c(-c2ccn(C(C)C)n2)nc(=O)c(C(=O)N2CCC(c3ncccc3F)C2)c1O (single isomer, unassigned) [Example 292, 1-(2,6-diethylphenyl)-5-[3-(3-fluoropyridin-2-yl)pyrrolidine-1-carbonyl]-6-hydroxy-2-[1-(propan-2-yl)-1H-pyrazol-3-yl]-1,4-dihydropyrimidin-4-one]

Further lines, the molecule ahead of its results:

SMILES | EC50 [nM]
COc1cccc(OC)c1-n1c(-c2ccnc(C)c2)nc(=O)c(C(=O)N2CCC(c3ccc(F)cc3F)C2)c1O (single isomer, unassigned) [Example 254, 5-[3-(2,4-difluorophenyl)pyrrolidine-1-carbonyl]-1-(2,6-dimethoxyphenyl)-6-hydroxy-2-(2-methylpyridin-4-yl)-1,4-dihydropyrimidin-4-one] | 0.01 to 10
CCCCc1nc(=O)c(C(=O)N2CCN(Cc3cccc(Cl)c3Cl)CC2)c(O)n1-c1c(OC)cccc1OC [Example 355, 2-butyl-5-(4-(2,3-dichlorobenzyl)piperazine-1-carbonyl)-1-(2,6-dimethoxyphenyl)-6-hydroxypyrimidin-4(1H)-one0.011] | 0.01 to 10
COc1cccc(OC)c1-n1c(-c2ccc(C)nc2)nc(=O)c(C(=O)N2CCC(c3c(F)cccc3F)C2)c1O (single isomer, unassigned) [Example 252, 5-[3-(2,6-difluorophenyl)pyrrolidine-1-carbonyl]-1-(2,6-dimethoxyphenyl)-6-hydroxy-2-(6-methylpyridin-3-yl)-1,4-dihydropyrimidin-4-one] | 0.01 to 10
COc1ccnc(-c2nc(=O)c(C(=O)N3CCC(c4c(F)cccc4F)C3)c(O)n2-c2c(OC)cccc2OC)c1 (single isomer, unassigned) [Example 273, 5-[3-(2,6-difluorophenyl)pyrrolidine-1-carbonyl]-1-(2,6-dimethoxyphenyl)-6-hydroxy-2-(4-methoxypyridin-2-yl)-1,4-dihydropyrimidin-4-one] | 0.01 to 10

Same assay, conditions: human APJ, intracellular cAMP accumulation; read-out: hAPJ cAMP EC50 Potency range

EC50 [nM] | SMILES
0.01 to 10 | CCCCc1nc(=O)c(C(=O)N2CCC(c3ccccc3Cl)C2)c(O)n1-c1c(OC)cccc1OC (single isomer, unassigned) [Example 43, 2-butyl-5-[3-(2-chlorophenyl)pyrrolidine-1-carbonyl]-1-(2,6-dimethoxyphenyl)-6-hydroxy-1,4-dihydropyrimidin-4-one]
10 to 100 | CCCCc1nc(=O)c(C(=O)N2CC[C@@H](c3ccccc3)C2)c(O)n1[C@H](C)c1ccccc1 [Example 132, 2-butyl-6-hydroxy-3-[(1R)-1-phenylethyl]-5-[(3S)-3-phenylpyrrolidine-1-carbonyl]-3,4-dihydropyrimidin-4-one]
0.01 to 10 | CCCCc1nc(=O)c(C(=O)N2CCC(c3cccc(F)c3)C2)c(O)n1[C@@H](CC)c1ccccc1 (single isomer, unassigned) [Example 115]
10 to 100 | CCCCc1nc(=O)c(C(=O)N2CC[C@@H](NC(=O)OCc3ccccc3)C2)c(O)n1-c1c(OC)cccc1OC [Example 62, benzyl N-[(3R)-1-[2-butyl-1-(2,6-dimethoxyphenyl)-6-hydroxy-4-oxo-1,4-dihydropyrimidine-5-carbonyl]pyrro1idin-3-yl]carbamate]
0.01 to 10 | CC[C@@H](c1cc(F)cc(F)c1)n1c(-c2cnn(C)c2)nc(=O)c(C(=O)N2CCC(c3ccccc3F)C2)c1O (single isomer, unassigned) [Example 196]
0.01 to 10 | COc1ccccc1C1CCN(C(=O)c2c(O)n(-c3c(OC)cccc3OC)c(COC(C)C)nc2=O)C1 (single isomer, unassigned) [Example 161, 1-(2,6-dimethoxy-phenyl)-6-hydroxy-5-[3-(2-methoxy-phenyl)pyrrolidine-1-carbonyl]-2-[(propan-2-yloxy)methyl]-1,4-dihydropyrimidin-4-one]

More lines, now with the values behind:

SMILES | EC50 [nM]
COc1cccc(OC)c1-n1c(CCC2CC2)nc(=O)c(C(=O)N2CCC(c3ncc(Cl)cc3F)C2)c1O (single isomer, unassigned) [Example 180, 5-[3-(5-chloro-3-fluoropyridin-2-yl)pyrrolidine-1-carbonyl]-2-(2-cyclopropylethyl)-1-(2,6-dimethoxyphenyl)-6-hydroxy-1,4-dihydropyrimidin-4-one] | 0.01 to 10
CC[C@@H](c1cc(F)cc(F)c1)n1c(-c2ccn(CC)n2)nc(=O)c(C(=O)N2CCC(c3ncc(F)cc3F)C2)c1O (single isomer, unassigned) [Example 192] | 0.01 to 10
COc1cccc(OC)c1-n1c(CCC2CC2)nc(=O)c(C(=O)N2CC=C(c3ccc(Cl)cn3)C2)c1O [Example 172, 5-[3-(5-chloropyridin-2-yl)-2,5-dihydro-1H-pyrrole-1-carbonyl]-2-(2-cyclopropylethyl)-1-(2,6-dimethoxyphenyl)-6-hydroxy-1,4-dihydropyrimidin-4-one] | 0.01 to 10
CC[C@@H](c1cc(F)cc(F)c1)n1c(-c2cnn(C)c2)nc(=O)c(C(=O)N2CCC(c3ncccc3F)C2)c1O (single isomer, unassigned) [Example 219] | 0.01 to 10
CCCCc1nc(=O)c(C(=O)N2Cc3ccc(F)cc3C2)c(O)n1-c1c(OC)cccc1OC [Example 56, 2-butyl-1-(2,6-dimethoxyphenyl)-5-(5-fluoro-2,3-dihydro-1H-isoindole-2-carbonyl)-6-hydroxy-1,4-dihydropyrimidin-4-one] | 0.01 to 10
CCCCc1nc(=O)c(C(=O)N2Cc3ccc(C#N)cc3C2)c(O)n1-c1c(OC)cccc1OC [Example 65, 2-[2-butyl-1-(2,6-dimethoxyphenyl)-6-hydroxy-4-oxo-1,4-dihydropyrimidine-5-carbonyl]-2,3-dihydro-1H-isoindole-5-carbonitrile] | 0.01 to 10

Same assay, conditions: read-out: hAPJ cAMP EC50 Potency range

SMILES | EC50 [nM]
CCOCc1nc(=O)c(C(=O)N2CC[C@H](OCc3ccccc3)C2)c(O)n1-c1c(OC)cccc1OC [Example 376, (S)-5-(3-(benzyloxy)pyrrolidine-1-carbonyl)-1-(2,6-dimethoxyphenyl)-2-(ethoxymethyl)-6-hydroxypyrimidin-4(1H)-one] | 0.01 to 10
COc1cccc(OC)c1-n1c(COC(C)(C)C)nc(=O)c(C(=O)N2CCC(c3ccccc3C#N)C2)c1O (single isomer, unassigned) [Example 368, 2-(1-(2-(tert-butoxymethyl)-1-(2,6-dimethoxyphenyl)-6-hydroxy-4-oxo-1,4-dihydropyrimidine-5-carbonyl)pyrrolidin-3-yl)benzonitrile] | 0.01 to 10

Same assay, conditions: read-out: hAPJ cAMP EC50 Potency range; human APJ, intracellular cAMP accumulation

EC50 [nM] | SMILES
0.01 to 10 | CCCCc1nc(=O)c(C(=O)N2CCC(c3ccncc3)C2)c(O)n1-c1c(OC)cccc1OC (single isomer, unassigned) [Example 48, 2-butyl-1-(2,6-dimethoxyphenyl)-6-hydroxy-5-[3-(pyridin-4-yl)pyrrolidine-1-carbonyl]-1,4-dihydropyrimidin-4-one]

Reference: patent US10590113B2, “6-hydroxy-4-oxo-1,4-dihydropyrimidine-5-carboxamides as APJ agonists” (priority 2016, dated 2020)
